# Measured values: patent US10464922B2, “Metalloenzyme inhibitor compounds” (NQP 1598 LTD., priority 2015, dated 2019)
# Key:
# C. albicans (ATCC 90028) = test: Minimum inhibitory concentration, in vitro broth microdilution assay (CLSI M27-A2); type: cell-based, Candida albicans; conditions: ATCC 90028, about 50% growth reduction, 2 days at 36° C., range tested 8-0.0078 μg/mL, values given as ranges; for MIC: Candida albicans, ATCC90028, 48 h, read-out: Candida albicans MIC
# Procedure, shortened: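 Inoculum of 1×10^3 to 1×10^4 CFU/mL in RPMI-1640+MOPS, exposed to 11 two-fold serial compound concentrations at 2 percent final DMSO, per CLSI M27-A2. After 2 days at 36° C, wells scored visually for growth to give MIC; tested in duplicate.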
# A. fumigatus = A. fumigatus MIC at 100% growth inhibition (CLSI M38-A2); type: cell-based, Aspergillus fumigatus; conditions: 100% growth inhibition, range tested 8-0.0078 μg/mL, values given as ranges; for MIC: Aspergillus fumigatus, read-out: Aspergillus fumigatus MIC
# Description: A. fumigatus MICs were determined at 100% growth inhibition following CLSI guidelines at a concentration range of 8-0.0078 μg/mL (CLSI M38-A2).
SMILES,MIC (C. albicans (ATCC 90028)),MIC (A. fumigatus),Aspergillus fumigatus MIC (A. fumigatus),Candida albicans MIC (C. albicans (ATCC 90028))
"N#Cc1ccc(CN2CCN(c3ccc(-c4ccc(C(F)(F)[C@](O)(Cn5cnnn5)c5ccc(F)cc5F)nc4)cc3)CC2)cc1 [Example 17, (R)-4-((4-(4-(6-(2-(2,4-difluorophenyl)-1,1-difluoro-2-hydroxy-3-(1H-tetrazol-1-yl)propyl)pyridin-3-yl)phenyl)piperazin-1-yl)methyl) benzonitrile]",0.0078 to 0.01 µg/mL,1 to 4 µg/mL,,
"CC(C)(C)Cn1ncn(-c2ccc(N3CCN(c4ccc(-c5ccc(C(F)(F)[C@](O)(Cn6cnnn6)c6ccc(F)cc6F)nc5)cc4)CC3)cc2)c1=O [Example 81, (R)-4-(4-(4-(4-(6-(2-(2,4-difluorophenyl)-1,1-difluoro-2-hydroxy-3-(1H-tetrazol-1-yl)propyl)pyridin-3-yl)phenyl)piperazin-1-yl)phenyl)-2-neopentyl-2,4-dihydro-3H-1,2,4-triazol-3-one]",0.0078 to 0.01 µg/mL,0.25 to 1 µg/mL,,
"N#Cc1ccc(N2CCN(c3ccc(-c4ccc(C(F)(F)[C@](O)(Cn5cnnn5)c5ccc(F)cc5F)nc4)cc3)CC2=O)cc1 [Example 25, (R)-4-(4-(4-(6-(2-(2,4-difluorophenyl)-1,1-difluoro-2-hydroxy-3-(1H-tetrazol-1-yl)propyl)pyridin-3-yl)phenyl)-2-oxopiperazin-1-yl) benzonitrile]",0.0078 to 0.01 µg/mL,0.25 to 1 µg/mL,,
"N#Cc1ccc(C(=O)N2CCN(c3ccc(-c4ccc(C(F)(F)[C@](O)(Cn5cnnn5)c5ccc(F)cc5F)nc4)cc3)CC2)cc1 [Example 23, (R)-4-(4-(4-(6-(2-(2,4-difluorophenyl)-1,1-difluoro-2-hydroxy-3-(1H-tetrazol-1-yl)propyl)pyridin-3-yl)phenyl)piperazine-1-carbonyl) benzonitrile]",0.0078 to 0.01 µg/mL,> 8 µg/mL,,
"N#Cc1ccc(N2CCC(c3ccc(-c4ccc(C(F)(F)[C@](O)(Cn5cnnn5)c5ccc(F)cc5F)nc4)cc3)CC2)cc1 [Example 22, (R)-4-(4-(4-(6-(2-(2,4-difluorophenyl)-1,1-difluoro-2-hydroxy-3-(1H-tetrazol-1-yl)propyl)pyridin-3-yl)phenyl)piperidin-1-yl) benzonitrile]",0.0078 to 0.01 µg/mL,0.25 to 1 µg/mL,,
"O[C@@](Cn1cnnn1)(c1ccc(F)cc1F)C(F)(F)c1ccc(-c2ccc(N3CCN(c4ccc5ncn(Cc6ccccc6)c5c4)CC3)cc2)cn1 [Example 98, (R)-1-(5-(4-(4-(1-benzyl-1H-benzo [d]imidazol-6-yl)piperazin-1-yl)phenyl)pyridin-2-yl)-2-(2,4-difluorophenyl)-1,1-difluoro-3-(1H-tetrazol-1-yl) propan-2-ol]",0.01 to 0.1 µg/mL,> 8 µg/mL,,
"CC[C@H](NC(=O)Nc1ccc(N2CCN(c3ccc(-c4ccc(C(F)(F)[C@](O)(Cn5cnnn5)c5ccc(F)cc5F)nc4)cc3)CC2)cc1)[C@H](C)O [Example 21, 1-(4-(4-(4-(6-((R)-2-(2,4-difluorophenyl)-1,1-difluoro-2-hydroxy-3-(1H-tetrazol-1-yl)propyl)pyridin-3-yl)phenyl)piperazin-1-yl)phenyl)-3-((2S,3S)-2-hydroxypentan-3-yl) urea]",0.01 to 0.1 µg/mL,0.25 to 1 µg/mL,,
"N#Cc1ccc(N2CCN(c3ccc(-c4ccc(C(F)(F)[C@](O)(Cn5cnnn5)c5ccc(F)cc5F)nc4)cc3)C(=O)C2)cc1 [Example 24, (R)-4-(4-(4-(6-(2-(2,4-difluorophenyl)-1,1-difluoro-2-hydroxy-3-(1H-tetrazol-1-yl)propyl)pyridin-3-yl)phenyl)-3-oxopiperazin-1-yl) benzonitrile]",0.0078 to 0.01 µg/mL,> 8 µg/mL,,
"CCC(C)n1ncn(-c2ccc(N3CCN(c4ccc(-c5ccc(C(F)(F)[C@](O)(Cn6cnnn6)c6ccc(F)cc6F)nc5)cc4)CC3)cc2)c1=O (stereo partly drawn) [Example 55, 2-(sec-butyl)-4-(4-(4-(4-(6-((R)-2-(2,4-difluorophenyl)-1,1-difluoro-2-hydroxy-3-(1H-tetrazol-1-yl)propyl)pyridin-3-yl)phenyl)piperazin-1-yl)phenyl)-2,4-dihydro-3H-1,2,4-triazol-3-one]",0.01 to 0.1 µg/mL,0.062 to 0.25 µg/mL,,

# Continued, values first:
MIC (C. albicans (ATCC 90028)),MIC (A. fumigatus),Aspergillus fumigatus MIC (A. fumigatus),Candida albicans MIC (C. albicans (ATCC 90028)),SMILES
0.0078 to 0.01 µg/mL,0.25 to 1 µg/mL,,,"CC(C)C(C)C(O)c1ccc(N2CCN(c3ccc(-c4ccc(C(F)(F)[C@](O)(Cn5cnnn5)c5ccc(F)cc5F)nc4)cc3)CC2)cn1 (stereo partly drawn) [Example 68, 1-(5-(4-(4-(6-((R)-2-(2,4-difluorophenyl)-1,1-difluoro-2-hydroxy-3-(1H-tetrazol-1-yl)propyl)pyridin-3-yl)phenyl)piperazin-1-yl)pyridin-2-yl)-2,3-dimethylbutan-1-ol]"
0.0078 to 0.01 µg/mL,0.25 to 1 µg/mL,,,"OC(c1cccc(N2CCN(c3ccc(-c4ccc(C(F)(F)[C@](O)(Cn5cnnn5)c5ccc(F)cc5F)nc4)cc3)CC2)c1)C(F)(F)F (stereo partly drawn) [Example 86, (2R)-2-(2,4-difluorophenyl)-1,1-difluoro-3-(1H-tetrazol-1-yl)-1-(5-(4-(4-(3-(2,2,2-trifluoro-1-hydroxyethyl)phenyl)piperazin-1-yl)phenyl)pyridin-2-yl) propan-2-ol]"
0.0078 to 0.01 µg/mL,> 8 µg/mL,,,"CC(C)(C)Cc1nc2ccc(N3CCN(c4ccc(-c5ccc(C(F)(F)[C@](O)(Cn6cnnn6)c6ccc(F)cc6F)nc5)cc4)CC3)cc2[nH]1 [Example 90, (R)-2-(2,4-difluorophenyl)-1,1-difluoro-1-(5-(4-(4-(2-neopentyl-1H-benzo [d]imidazol-6-yl)piperazin-1-yl)phenyl)pyridin-2-yl)-3-(1H-tetrazol-1-yl) propan-2-ol]"
0.0078 to 0.01 µg/mL,1 to 4 µg/mL,,,"OC(CC(F)(F)F)c1ncc(N2CCN(c3ccc(-c4ccc(C(F)(F)[C@](O)(Cn5cnnn5)c5ccc(F)cc5F)nc4)cc3)CC2)cn1 (stereo partly drawn) [Example 51, 1-(5-(4-(4-(6-((R)-2-(2,4-difluorophenyl)-1,1-difluoro-2-hydroxy-3-(1H-tetrazol-1-yl)propyl)pyridin-3-yl)phenyl)piperazin-1-yl)pyrimidin-2-yl)-3,3,3-trifluoropropan-1-ol]"
0.0078 to 0.01 µg/mL,0.25 to 1 µg/mL,,,"N#Cc1ccc(N2CCN(c3ccc(-c4ccc(C(F)(F)[C@](O)(Cn5cnnn5)c5ccc(F)cc5F)nc4)cc3)CC2)cc1 [Example 1, (R)-4-(4-(4-(6-(2-(2,4-difluorophenyl)-1,1-difluoro-2-hydroxy-3-(1H-tetrazol-1-yl)propyl)pyridin-3-yl)phenyl)piperazin-1-yl) benzonitrile]"
0.0078 to 0.01 µg/mL,0.25 to 1 µg/mL,,,"CC(C)(O)c1ccc(N2CCN(c3ccc(-c4ccc(C(F)(F)[C@](O)(Cn5cnnn5)c5ccc(F)cc5F)nc4)cc3)CC2)cc1 [Example 72, (R)-2-(2,4-difluorophenyl)-1,1-difluoro-1-(5-(4-(4-(4-(2-hydroxypropan-2-yl)phenyl)piperazin-1-yl)phenyl)pyridin-2-yl)-3-(1H-tetrazol-1-yl) propan-2-ol]"
0.0078 to 0.01 µg/mL,0.25 to 1 µg/mL,,,"CCC(C)C(O)c1ccc(N2CCN(c3ccc(-c4ccc(C(F)(F)[C@](O)(Cn5cnnn5)c5ccc(F)cc5F)nc4)cc3)CC2)cn1 (stereo partly drawn) [Example 65, 1-(5-(4-(4-(6-((R)-2-(2,4-difluorophenyl)-1,1-difluoro-2-hydroxy-3-(1H-tetrazol-1-yl)propyl)pyridin-3-yl)phenyl)piperazin-1-yl)pyridin-2-yl)-2-methylbutan-1-ol]"
0.01 to 0.1 µg/mL,0.25 to 1 µg/mL,,,"CC(O)c1ccc(N2CCN(c3ccc(-c4ccc(C(F)(F)[C@](O)(Cn5cnnn5)c5ccc(F)cc5F)nc4)cc3)CC2)cc1 (stereo partly drawn) [Example 56, (2R)-2-(2,4-difluorophenyl)-1,1-difluoro-1-(5-(4-(4-(4-(1-hydroxyethyl)phenyl)piperazin-1-yl)phenyl)pyridin-2-yl)-3-(1H-tetrazol-1-yl) propan-2-ol]"
0.0078 to 0.01 µg/mL,,0.25 to 1.0 µg/mL,,"OC(CC(F)(F)F)c1ccc(N2CCN(c3ccc(-c4ccc(C(F)(F)[C@](O)(Cn5cnnn5)c5ccc(F)cc5F)nc4)cc3)CC2)cn1 (stereo partly drawn) [Example 13, 1-(5-(4-(4-(6-((R)-2-(2,4-difluorophenyl)-1,1-difluoro-2-hydroxy-3-(1H-tetrazol-1-yl)propyl)pyridin-3-yl)phenyl)piperazin-1-yl)pyridin-2-yl)-3,3,3-trifluoropropan-1-ol]"
0.0078 to 0.01 µg/mL,0.25 to 1 µg/mL,,,"CC(C)C(O)c1ccc(N2CCN(c3ccc(-c4ccc(C(F)(F)[C@](O)(Cn5cnnn5)c5ccc(F)cc5F)nc4)cc3)CC2)cn1 (stereo partly drawn) [Example 45, 1-(5-(4-(4-(6-((R)-2-(2,4-difluorophenyl)-1,1-difluoro-2-hydroxy-3-(1H-tetrazol-1-yl)propyl)pyridin-3-yl)phenyl)piperazin-1-yl)pyridin-2-yl)-2-methylpropan-1-ol]"
,,0.25 to 1.0 µg/mL,≤0.0078 to 0.010 µg/mL,"OC(c1ccc(N2CCN(c3ccc(-c4ccc(C(F)(F)[C@](O)(Cn5cnnn5)c5ccc(F)cc5F)nc4)cc3)CC2)cn1)C(F)(F)F (single isomer, unassigned) [Example 6-Fr-II]"
